ChEMBL document CHEMBL1155543 (Bioorg Med Chem Lett, 2010)

What was measured:
[1] = target: Carbonic anhydrase 13 (Mus musculus, UniProt Q9D6N1)
[2] = target: Carbonic anhydrase 5A, mitochondrial (Homo sapiens, UniProt P35218)
[3] = target: Carbonic anhydrase 14 (Homo sapiens, UniProt Q9ULX7)
[4] = target: Carbonic anhydrase 4 (Homo sapiens, UniProt P22748)
[5] = target: Carbonic anhydrase 6 (Homo sapiens, UniProt P23280)
[6] = target: Carbonic anhydrase 3 (Homo sapiens, UniProt P07451)
[7] = target: Carbonic anhydrase 7 (Homo sapiens, UniProt P43166)
[8] = target: T1, Carbonic anhydrase 15 (Mus musculus, UniProt Q99N23)
T1 sequence (Q99N23 whole entry): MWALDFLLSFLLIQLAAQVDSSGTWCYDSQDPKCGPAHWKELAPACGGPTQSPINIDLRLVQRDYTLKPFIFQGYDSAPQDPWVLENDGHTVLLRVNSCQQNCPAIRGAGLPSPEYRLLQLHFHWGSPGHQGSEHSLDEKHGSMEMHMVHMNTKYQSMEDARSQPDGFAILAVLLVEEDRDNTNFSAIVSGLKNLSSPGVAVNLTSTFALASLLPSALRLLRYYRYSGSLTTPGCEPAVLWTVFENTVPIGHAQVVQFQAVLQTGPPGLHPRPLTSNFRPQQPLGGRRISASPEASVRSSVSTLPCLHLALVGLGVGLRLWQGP

[9] = target: Carbonic anhydrase 5B, mitochondrial (Homo sapiens, UniProt Q9Y2D0)
[10] = target: Carbonic anhydrase 12 (Homo sapiens, UniProt O43570)
Sequence of Carbonic anhydrase 12 (O43570 whole entry): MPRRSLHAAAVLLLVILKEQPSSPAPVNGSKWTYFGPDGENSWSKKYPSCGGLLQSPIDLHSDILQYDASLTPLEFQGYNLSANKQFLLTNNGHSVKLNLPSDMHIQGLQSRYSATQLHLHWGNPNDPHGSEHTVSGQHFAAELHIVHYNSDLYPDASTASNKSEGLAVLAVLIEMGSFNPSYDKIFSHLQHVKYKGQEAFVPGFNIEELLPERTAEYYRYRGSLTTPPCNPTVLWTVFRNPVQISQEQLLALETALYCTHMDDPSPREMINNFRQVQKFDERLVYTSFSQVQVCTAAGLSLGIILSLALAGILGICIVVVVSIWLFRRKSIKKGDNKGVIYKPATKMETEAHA

Sequence of Carbonic anhydrase 3 (P07451 whole entry): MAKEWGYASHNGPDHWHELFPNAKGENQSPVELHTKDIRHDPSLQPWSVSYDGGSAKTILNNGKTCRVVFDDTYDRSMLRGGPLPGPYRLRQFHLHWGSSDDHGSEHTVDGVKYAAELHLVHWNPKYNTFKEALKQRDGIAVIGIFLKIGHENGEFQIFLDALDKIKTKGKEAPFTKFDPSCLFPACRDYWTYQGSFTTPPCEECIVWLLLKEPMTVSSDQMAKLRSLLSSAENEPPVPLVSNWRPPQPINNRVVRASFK
Sequence of Carbonic anhydrase 6 (P23280 whole entry): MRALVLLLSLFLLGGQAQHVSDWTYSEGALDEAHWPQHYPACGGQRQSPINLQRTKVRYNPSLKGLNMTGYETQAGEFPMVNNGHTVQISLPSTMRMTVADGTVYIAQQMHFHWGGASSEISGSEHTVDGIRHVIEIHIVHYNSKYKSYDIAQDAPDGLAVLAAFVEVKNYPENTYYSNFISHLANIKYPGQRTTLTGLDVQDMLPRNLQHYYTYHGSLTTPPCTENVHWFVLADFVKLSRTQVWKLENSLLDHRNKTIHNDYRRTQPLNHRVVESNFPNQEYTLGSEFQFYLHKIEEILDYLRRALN
Sequence of Carbonic anhydrase 5B, mitochondrial (Q9Y2D0 whole entry): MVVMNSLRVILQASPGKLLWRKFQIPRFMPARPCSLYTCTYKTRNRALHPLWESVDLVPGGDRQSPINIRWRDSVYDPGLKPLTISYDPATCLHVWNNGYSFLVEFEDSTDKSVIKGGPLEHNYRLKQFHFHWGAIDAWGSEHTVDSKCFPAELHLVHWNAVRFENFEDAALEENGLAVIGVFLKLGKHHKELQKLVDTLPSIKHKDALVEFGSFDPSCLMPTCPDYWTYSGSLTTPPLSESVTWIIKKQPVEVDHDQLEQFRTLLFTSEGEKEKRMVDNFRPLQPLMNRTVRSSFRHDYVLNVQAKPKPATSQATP
Sequence of Carbonic anhydrase 13 (Q9D6N1 whole entry): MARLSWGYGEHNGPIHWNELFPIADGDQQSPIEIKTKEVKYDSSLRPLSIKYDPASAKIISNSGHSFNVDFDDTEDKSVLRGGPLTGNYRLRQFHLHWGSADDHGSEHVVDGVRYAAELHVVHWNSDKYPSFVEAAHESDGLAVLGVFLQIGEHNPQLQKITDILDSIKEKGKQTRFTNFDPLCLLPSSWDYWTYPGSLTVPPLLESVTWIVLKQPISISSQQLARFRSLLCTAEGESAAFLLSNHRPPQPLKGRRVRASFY
Sequence of Carbonic anhydrase 5A, mitochondrial (P35218 whole entry): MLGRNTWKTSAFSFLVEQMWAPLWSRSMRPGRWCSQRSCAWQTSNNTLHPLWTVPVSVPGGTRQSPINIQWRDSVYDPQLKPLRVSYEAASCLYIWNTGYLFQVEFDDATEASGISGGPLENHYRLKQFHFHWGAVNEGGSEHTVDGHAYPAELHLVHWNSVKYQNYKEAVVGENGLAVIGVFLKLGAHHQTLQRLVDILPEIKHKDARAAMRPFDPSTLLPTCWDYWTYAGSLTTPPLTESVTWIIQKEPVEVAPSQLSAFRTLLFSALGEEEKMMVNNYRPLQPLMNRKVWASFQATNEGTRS
Sequence of Carbonic anhydrase 7 (P43166 whole entry): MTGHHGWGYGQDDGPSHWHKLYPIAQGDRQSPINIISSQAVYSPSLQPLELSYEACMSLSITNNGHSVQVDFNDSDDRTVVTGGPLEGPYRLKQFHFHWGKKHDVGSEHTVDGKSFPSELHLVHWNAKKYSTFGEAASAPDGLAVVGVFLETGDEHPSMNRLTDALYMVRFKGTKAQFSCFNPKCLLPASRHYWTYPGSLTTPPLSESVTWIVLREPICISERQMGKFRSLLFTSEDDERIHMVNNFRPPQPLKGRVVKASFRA
Sequence of Carbonic anhydrase 4 (P22748 whole entry): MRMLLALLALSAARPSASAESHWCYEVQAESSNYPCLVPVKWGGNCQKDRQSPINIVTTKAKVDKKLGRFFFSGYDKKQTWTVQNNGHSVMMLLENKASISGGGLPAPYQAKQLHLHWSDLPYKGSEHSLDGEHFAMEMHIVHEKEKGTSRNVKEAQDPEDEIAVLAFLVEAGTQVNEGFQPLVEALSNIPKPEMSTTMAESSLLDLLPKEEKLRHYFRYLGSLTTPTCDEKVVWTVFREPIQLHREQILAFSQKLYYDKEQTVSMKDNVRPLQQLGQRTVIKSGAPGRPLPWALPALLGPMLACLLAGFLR
Sequence of Carbonic anhydrase 14 (Q9ULX7 whole entry): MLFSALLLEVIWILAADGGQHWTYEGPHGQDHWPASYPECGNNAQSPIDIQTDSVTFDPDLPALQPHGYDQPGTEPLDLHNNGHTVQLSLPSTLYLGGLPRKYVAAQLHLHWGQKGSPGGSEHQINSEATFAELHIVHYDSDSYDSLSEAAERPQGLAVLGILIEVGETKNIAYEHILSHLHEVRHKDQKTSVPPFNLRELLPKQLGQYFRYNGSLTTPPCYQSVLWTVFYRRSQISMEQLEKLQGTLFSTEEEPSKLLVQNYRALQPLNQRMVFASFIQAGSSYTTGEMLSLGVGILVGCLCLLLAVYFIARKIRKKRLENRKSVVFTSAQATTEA

SMILES	Ki [1]	Ki [2]	Ki [3]	Ki [4]	Ki [5]	Ki [6]	Ki [7]	Ki [8]	Ki [9]	Ki [10]
CC1(C)OB(c2ccc(NS(N)(=O)=O)cc2)OC1(C)C	0.994 µM	0.087 µM	0.0071 µM	8.62 µM	0.749 µM	8.77 µM	0.084 µM	0.089 µM	0.075 µM	0.0089 µM
CC1(C)O[C@@H]2[C@@H](CO[C@@]3(CNS(N)(=O)=O)OC(C)(C)O[C@@H]23)O1						4000 µM				
NS(N)(=O)=O [SULFAMIDE]						1090 µM				
